Laboratory results reported in publication PMC10613967, “The anti-cancer efficacy of a novel phenothiazine derivative is independent of dopamine and serotonin receptor inhibition” (Frontiers in Oncology, 2023).
Where a name gives a salt, the structure may show the parent alone. Read-outs that look alike come from different tables or passages of the source.

How the values were obtained:
[1] = system: A375 cells; assay: Cell cycle analysis (PI staining, flow cytometry); assay type: cell-based, human; conditions: 24h
Method: (§1) A375 cells were seeded at 250,000 cells/well in 6-well plates and left to attach overnight. […] For cell cycle analysis, cells were detached with trypsin, fixed in ethanol 70%, treated with RNase A, mixed with propidium iodide, and processed with the Becton Dickinson LSR II flow cytometer. Analysis was performed with ModFit LT software. […] Samples were processed with the Becton Dickinson LSR II flow cytometer, and the analysis was performed with FlowJo software. Annexin V positive and PI negative cells were counted as apoptotic cells.

[2] = system: A375 cells; assay: Cell viability assay (Cell-Titer-Blue); assay type: cell-based, human
Method: (§2) Cells were seeded in 96-well plates at a suitable cell density for the growth rates of individual cell lines and the incubation time of the assay. […] Cell viability was determined using Cell-Titer-Blue assay (Promega) according to manufacturer’s instructions. The Synergy HT plate reader (Biotek, Winooski, VT) was used for signal quantification and the fluorescence values were normalized to the vehicle well for each cell line. Absolute IC50 and Growth rate inhibition GR50 ([27]) were calculated with GraphPadPrism software (GraphPad Software, Inc.).

[3] = system: A375 cells; assay: Immunofluorescence (α-tubulin, pericentrin, DNA); assay type: cell-based, human; conditions: 20µM, 24h
Method: At the end of the incubation, cells were fixed in 4% PFA, permeabilized in PBS-0.2% Triton X100, and blocked in PBS-2.5% BSA before antibody incubation. Cells were incubated with anti-Tubulin and anti-Pericentrin antibodies overnight at 4°C, and then with secondary antibodies for 1 h at room temperature ( Table 1 ). All antibodies were diluted in PBS-2.5% BSA. The coverslips were then mounted on cover glass with a DAPI (4’,6-diamidino-2-phenylindole)-containing mounting media (Invitrogen P36962, Waltham, MA), and imaged with a Leica SP8 confocal microscope.

[4] = system: A375 cells; assay: Apoptosis assay (Annexin V staining, flow cytometry); assay type: cell-based, human; conditions: 24h exposure
Method: as §1

[5] = system: variety of cancer cell types; conditions: in vitro; read-out: IC50, cytotoxicity; cited from earlier work
[6] = system: 786-O; assay: Cell viability assay (Cell-Titer-Blue); assay type: cell-based, human; conditions: 72h; read-out: Calculated IC50
Method: (§3) All cell lines were grown at 37°C in a 5% CO2 atmosphere in the ATCC-specified medium containing 10% FBS and 1% NEAA ( Table 1 ).
as §2

[7] = system: HCC1806; assay: Cell viability assay (Cell-Titer-Blue); assay type: cell-based, human; conditions: 72h; read-out: Calculated IC50
Method: as §3, §2

[8] = system: PC-3; assay: Cell viability assay (Cell-Titer-Blue); assay type: cell-based, human; conditions: 72h; read-out: Calculated IC50
Method: as §3, §2

[9] = system: DU145; assay: Cell viability assay (Cell-Titer-Blue); assay type: cell-based, human; conditions: 72h; read-out: Calculated IC50
Method: as §3, §2

[10] = system: TCCSUP; assay: Cell viability assay (Cell-Titer-Blue); assay type: cell-based, human; conditions: 72h; read-out: Calculated IC50
Method: as §3, §2

[11] = system: RPMI7951; assay: Cell viability assay (Cell-Titer-Blue); assay type: cell-based, human; conditions: 72h; read-out: Calculated IC50
Method: as §2

[12] = system: HCT116; assay: Cell viability assay (Cell-Titer-Blue); assay type: cell-based, human; conditions: 72h; read-out: Calculated IC50
Method: as §2

[13] = system: 22Rv1; assay: Cell viability assay (Cell-Titer-Blue); assay type: cell-based, human; conditions: 72h; read-out: Calculated IC50
Method: as §2

[14] = system: MDA-MB-231; assay: Cell viability assay (Cell-Titer-Blue); assay type: cell-based, human; conditions: 72h; read-out: Calculated IC50
Method: as §2

[15] = system: U251; assay: Cell viability assay (Cell-Titer-Blue); assay type: cell-based, human; conditions: 72h; read-out: Calculated IC50
Method: as §2

[16] = system: A2058; assay: Cell viability assay (Cell-Titer-Blue); assay type: cell-based, human; conditions: 72h; read-out: Calculated IC50
Method: as §3, §2

[17] = system: SKMEL28; assay: Cell viability assay (Cell-Titer-Blue); assay type: cell-based, human; conditions: 72h; read-out: Calculated IC50
Method: as §2

[18] = system: A498; assay: Cell viability assay (Cell-Titer-Blue); assay type: cell-based, human; conditions: 72h; read-out: Calculated IC50
Method: as §3, §2

[19] = system: HT29; assay: Cell viability assay (Cell-Titer-Blue); assay type: cell-based, human; conditions: 72h; read-out: Calculated IC50
Method: as §2

[20] = system: panel of cancer cell lines; assay: Cell viability assay across the panel of cell lines; assay type: cell-based, human; conditions: 72h of drug exposure; read-out: Absolute IC50, range across the panel
Method: as §3, §2

[21] = system: A101D; assay: Cell viability assay (Cell-Titer-Blue); assay type: cell-based, human; conditions: 72h; read-out: Calculated IC50
Method: as §3, §2

[22] = system: RT4; assay: Cell viability assay (Cell-Titer-Blue); assay type: cell-based, human; conditions: 72h; read-out: Calculated IC50
Method: as §3, §2

[23] = system: LNCaP; assay: Cell viability assay (Cell-Titer-Blue); assay type: cell-based, human; conditions: 72h; read-out: Calculated IC50
Method: as §3, §2

[24] = system: Hs852T; assay: Cell viability assay (Cell-Titer-Blue); assay type: cell-based, human; conditions: 72h; read-out: Calculated IC50
Method: as §3, §2

[25] = system: ZR-75-1; assay: Cell viability assay (Cell-Titer-Blue); assay type: cell-based, human; conditions: 72h; read-out: Calculated IC50
Method: as §3, §2

[26] = system: WM-266-4; assay: Cell viability assay (Cell-Titer-Blue); assay type: cell-based, human; conditions: 72h; read-out: Calculated IC50
Method: as §3, §2

[27] = system: BxPC3; assay: Cell viability assay (Cell-Titer-Blue); assay type: cell-based, human; conditions: 72h; read-out: Calculated IC50
Method: as §2

[28] = system: HepG2; assay: Cell viability assay (Cell-Titer-Blue); assay type: cell-based, human; conditions: 72h; read-out: Calculated IC50
Method: as §3, §2

[29] = system: U87; assay: Cell viability assay (Cell-Titer-Blue); assay type: cell-based, human; conditions: 72h; read-out: Calculated IC50
Method: as §2

[30] = system: PANC1; assay: Cell viability assay (Cell-Titer-Blue); assay type: cell-based, human; conditions: 72h; read-out: Calculated IC50
Method: as §2

For `CN(C)CCCN1c2ccccc2Sc2ccc(Cl)cc21` [Chlorpromazine, chlorpromazine hydrochloride], the “cells in the G2/M phase” value ([1]; 20µM) was 69.8%, the “cell cycle arrest (in words)” value [1] was “induces a cell cycle arrest in G2/M” and the IC50 ([2]; Homo sapiens, A-375, 24h treatment, read-out: IC50, cell viability) was 13.6 µM. For the same molecule, the “mitotic phenotype by immunofluorescence” value [3] was “cells often appeared binucleated”.
In the case of `OCCN1CCN(CCCN2c3ccccc3Sc3ccc(C(F)(F)F)cc32)CC1` [Fluphenazine, fluphenazine hydrochloride], the “concentrations inducing apoptosis (annexin V staining)” value [4] is reported as ≥ 20 µM, the “concentrations inducing G0/G1 cell cycle arrest” value [1] is reported as ≥ 10 µM and the “mitotic phenotype by immunofluorescence” value [3] is reported as “dramatic decrease in the number of cells in mitosis”. For the same molecule, the IC50 [5] was 5 to 20 µM.
`Cl.NCCCCCCNS(=O)(=O)c1cccc2c(Cl)cccc12` [W-7, W-7 hydrochloride] showed an IC50 [6] of 33.5 µM, an IC50 [7] of 26.9 µM and an IC50 [8] of 40.8 µM. For the same molecule, the IC50 [9] was 37.3 µM, the IC50 [10] was 25.9 µM and the IC50 [11] was 26.5 µM. For the same molecule, the IC50 [12] was 27.9 µM, the “cell cycle arrest (in words)” value [1] was “did not induce a cell cycle arrest” and the IC50 [13] was 39.1 µM. For the same molecule, the IC50 [14] was 34.6 µM, the IC50 [15] was 30 µM and the IC50 [16] was 24.3 µM. The IC50 ([2]; 72h, read-out: Calculated IC50) was 21.8 µM, the IC50 [17] was 29.3 µM and the IC50 [18] was 28 µM. The IC50 [19] was 26.4 µM, the IC50 [20] was 21.8 to 56.8 µM and the IC50 [21] was 26.9 µM. For the same molecule, the IC50 [22] was 45.2 µM, the IC50 [23] was 36.6 µM and the IC50 [24] was 24.5 µM. It also gave an IC50 [25] of 25.2 µM, an IC50 [26] of 28.2 µM and an IC50 [27] of 38.1 µM. The IC50 [28] was 26.8 µM, the IC50 [29] was 56.8 µM and the IC50 [30] was 32.7 µM.
